Experimental findings from paper PMC10283505, “CVM-1118 (foslinanib), a 2-phenyl-4-quinolone derivative, promotes apoptosis and inhibits vasculogenic mimicry via targeting TRAP1” (Pathology and Oncology Research, 2023) are described below.

Each structure is given as a SMILES string. Where only a bound is given, the exact number is not on record here.

Experiment [1] has as its system human melanoma (C8161) cells. Nature of the experiment: In vitro VM assay (3D Matrigel tubular network). It counts as cell-based. As to conditions: 24 h. As for the experimental part:
Aggressive human melanoma (C8161) cells were seeded at 1.0 × 10^5 onto 3D polymerized LDEV-free Matrigel (75 μL; 14 mg/ml; Corning Cat. No. 356232) for VM analysis in 12-well dishes containing no drug or various concentrations of CVM-1118. Matrigel-coated dishes were photographed for tubular network formation after 24 h.

For experiment [2], the system named is HT-29 colorectal adenocarcinoma cells. The experiment in a line: Flow cytometry cell cycle analysis (PI). To be noted: 48 h. It is filed as cell-based, human. The method, then: This assay was conducted by ProQinase GmbH (Freiburg, Germany). HT-29 colorectal adenocarcinoma cells were seeded at 150,000 cells/well in 6-well cell culture plates in 5 mL complete medium and incubated at 37°C overnight. On the day of the assay, CVM-1118 at various concentrations or 0.1% DMSO were added to the cells. After 48 h incubation, cells were harvested including the supernatant, fixed in 80% methanol, and stored at −20°C overnight. The next day, cells were rehydrated in PBS for 30 min and treated with RNAse A (100 μg/mL) and propidium iodide (PI) (25 μg/mL). Cell cycle distribution was analyzed by flow cytometry (FACSCalibur, BD Biosciences), assessing approximately 10,000 events. Detection of DNA intercalated with PI was done by fluorescence detector FL3, in which amplification was set in such a manner that the first amplitude peak of the FL3 signal (FL3-A) in untreated cells (corresponding to the G1 cell population) was found at approximately 200 units. For analysis, events were plotted as histogram. The peak at ∼200 units was defined as cells in G1, events below the G1-peak were considered apoptotic cells (sub-G1), and events at ∼400 units as G2/M cells. All signals in between 200 and 400 units were defined as cells in S-Phase, and those beyond 400 units as endoreduplicated cells (endoR).
(In flow cytometry, cells or beads pass a laser one at a time.)

A further experiment relates to U251. The experiment in a line: NCI 60 cytotoxicity screening. It counts as cell-based. As to conditions: Homo sapiens, U-251; U251, CNS.
A further experiment concerns NCI/ADR-RES. Nature of the experiment: NCI 60 cytotoxicity screening. It is filed as cell-based. To be noted: Homo sapiens, Ovarian.
The subject of a further experiment is MDA-MB-435. Nature of the experiment: NCI 60 cytotoxicity screening. It is filed as cell-based. As to conditions: Homo sapiens; MDA-MB-435, Melanoma.
The subject of another experiment is RPMI-8226. The experiment in a line: NCI 60 cytotoxicity screening. It counts as cell-based. To be noted: Homo sapiens; RPMI-8226, Leukemia.
In another experiment the test system is SR. Nature of the experiment: NCI 60 cytotoxicity screening. It is filed as cell-based. To be noted: Homo sapiens, Leukemia.
For a further experiment, the system named is SK-MEL-5. The experiment in a line: NCI 60 cytotoxicity screening. It is filed as cell-based. As to conditions: Homo sapiens; SK-MEL-5, Melanoma.
The subject of the next experiment is OVCAR-4. The experiment in a line: NCI 60 cytotoxicity screening. It is filed as cell-based. To be noted: Homo sapiens; OVCAR-4, Ovarian.
The next experiment concerns the target T1, CEACAM5 (Homo sapiens, UniProt P06731).
T1 sequence (P06731 35-702): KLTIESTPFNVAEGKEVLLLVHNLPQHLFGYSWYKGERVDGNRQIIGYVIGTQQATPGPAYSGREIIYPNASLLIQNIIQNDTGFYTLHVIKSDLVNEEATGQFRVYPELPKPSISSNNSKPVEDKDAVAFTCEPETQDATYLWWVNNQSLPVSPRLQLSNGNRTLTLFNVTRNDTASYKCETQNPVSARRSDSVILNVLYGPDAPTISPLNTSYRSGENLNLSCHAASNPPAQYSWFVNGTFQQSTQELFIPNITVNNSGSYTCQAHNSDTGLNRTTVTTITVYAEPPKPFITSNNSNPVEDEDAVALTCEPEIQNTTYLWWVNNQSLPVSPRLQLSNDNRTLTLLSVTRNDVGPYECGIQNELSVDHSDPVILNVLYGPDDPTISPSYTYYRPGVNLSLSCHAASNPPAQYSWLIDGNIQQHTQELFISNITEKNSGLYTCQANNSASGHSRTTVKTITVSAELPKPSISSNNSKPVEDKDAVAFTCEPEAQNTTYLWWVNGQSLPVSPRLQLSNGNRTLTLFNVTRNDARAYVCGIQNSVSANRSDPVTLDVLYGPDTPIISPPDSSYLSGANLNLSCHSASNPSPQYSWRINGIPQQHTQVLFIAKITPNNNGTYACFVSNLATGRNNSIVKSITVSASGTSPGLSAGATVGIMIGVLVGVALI
Nature of the experiment: Surface plasmon resonance (Biacore). It is filed as binding. As to conditions: CEACAM5, SPR.

Turning to `COc1ccc2[nH]c(-c3cccc(F)c3)cc(=O)c2c1OP(=O)(O)O` [CVM-1118], the “VM (in vitro) tubular network formation” value is given as “disrupted” in experiment [1] (C8161, 5 nM); “significantly inhibited” in experiment [1] (C8161, 10 nM); “significantly inhibited” in experiment [1] (C8161, 50 nM). Moreover, the “Cell cycle profile, EndoR” value is reported as 1.28% in experiment [2] (HT-29, 10 nM); 1.23% in experiment [2] (HT-29, 30 nM); 2.84% in [2] (HT-29, 100 nM); 2.45% in experiment [2] (HT-29, 300 nM). For the same molecule, the “Cell cycle profile, G1 phase” value in [2] (HT-29, 10 nM) is 49.34%; in experiment [2] (HT-29, 30 nM), 50.63%; in [2] (HT-29, 100 nM), 16.27%; in experiment [2] (HT-29, 300 nM), 1.58%. The “Cell cycle profile, G2/M phase” value in [2] (HT-29, 10 nM) was 25.66%; in [2] (HT-29, 30 nM), 23.71%; in experiment [2] (HT-29, 100 nM), 43.42%; in experiment [2] (HT-29, 300 nM), 50.77%. Moreover, the “Cell cycle profile, S phase” value in [2] (HT-29, 10 nM) is on record as 23.02%; in experiment [2] (HT-29, 30 nM) it was 23.30%; in experiment [2] (HT-29, 100 nM), 10.90%; in [2] (HT-29, 300 nM), 23.63%. In addition, the “Cell cycle profile, Sub-G1” value in [2] (HT-29, 10 nM) was found to be 1.24%; in [2] (HT-29, 30 nM), 1.44%; in experiment [2] (HT-29, 100 nM) it was 26.96%; in [2] (HT-29, 300 nM), 22.46%.
As usually defined, the GI50 is the concentration giving 50% growth inhibition. A higher GI50 goes with lower sensitivity of the cells. Regarding `COc1ccc2[nH]c(-c3cccc(F)c3)cc(=O)c2c1O` [CVM-1125], the GI50 with U251 is 42.9 nM; with NCI/ADR-RES, 20.8 nM; in the experiment with MDA-MB-435, below 10 nM; in the experiment with RPMI-8226 it was 33.1 nM; with SR, 12 nM; in the experiment on SK-MEL-5 it was 29.8 nM. Also, the GI50 in the experiment on OVCAR-4 is 43.6 nM. Further, the “Association (ka)” value at CEACAM5 is on record as “No interaction”. Moreover, at CEACAM5, the “Dissociation (kd)” value was “No interaction”. The “KD (kd/ka)” value at CEACAM5 is “No interaction”.
